Counter-ions that a name gives are not always drawn.
Experiments:
human H3 receptor = target: T1, human H3 receptor (Homo sapiens, UniProt Q9Y5N1); assay: Human H3 radioligand binding ([3H]-N-alpha-methylhistamine, SPA); conditions: membranes of CHO cells expressing human H3 receptor; [3H]-N-alpha-methylhistamine about 1 nM
T1 construct: expressed in transfected cells; membrane preparation
Protocol: (§1) Methods: CHO cells stably expressing the human H3 receptor (GenBank: NM_007232) were harvested and cell pellets were frozen (−80° C.). Cell pellets were resuspended in 5 mM Tris-HCl, pH 7.5 with […] and a cocktail of protease inhibitors (Complete Protease Inhibitior Tablets, Roche Diagnostics). Cells were disrupted using a polytron cell homogenizer and the suspension was centrifuged at 1000×g for 10 minutes at 4° C. The pellet was discarded and the supernatant centrifuged at 40,000×g for 30 min at 4° C. This membrane pellet was washed in membrane buffer containing 50 mM Tris-HCl, pH 7.5 with 0.6 mM EDTA, 5 mM MgCl2 and protease inhibitors, recentrifuged as above and the final pellet resuspended in membrane buffer plus 250 mM sucrose and frozen at −80° C.
(§2) Radioligand Binding. Membranes were resuspended in 50 mM Tris HCl (pH 7.4), 5 mM MgCl2, 0.1% BSA. The membrane suspensions (10 μg protein per well) were incubated in a 96 well microtiter plate with [^3H]-N-alpha-methylhistamine (approximately 1 nM final concentration), test compounds at various concentrations (0.01 nM-30 μM) and scintillation proximity beads (Perkin Elmer, FlashBlueGPCR Scintillating Beads) in a final volume of 80 μl for 4 hours at room temperature, protected from light. Non-specific binding was determined in the presence of 10 μM clobenpropit. Radioligand bound to receptor, and therefore in proximity to the scintillation beads, was measured using a MicroBeta scintillation counter.

[1] = target: T2, rat histamine H3 receptor (Rattus norvegicus, UniProt Q9QYN8); assay: Rat H3 radioligand binding ([3H]-N-alpha-methylhistamine, SPA); conditions: membranes of CHO-A3 cells expressing rat H3 receptor; [3H]-N-alpha-methylhistamine about 1 nM
T2 construct: encoding the entire 445-amino-acid rat histamine H3 receptor; expressed in transfected cells; membrane preparation
From the text: as §1, with “Cell line development and membrane preparation. The rat” for “Methods: CHO cells stably expressing the human”, “cDNA was PCR amplified from reverse-transcribed RNA pooled from rat thalamus, hypothalamus, striatum and prefrontal cortex with a sequence corresponding to by #338-1672 of Genbank file #NM_053506, encoding the entire 445-amino-acid rat histamine H3 receptor. This was engineered into the pIRES-neo3 mammalian expression vector, which was stably transfected into the CHO-A3 cell line (Euroscreen, Belgium), followed by clonal selection by limiting dilution. Cells” for “(GenBank: NM_007232)”
as §2

T2 sequence (Q9QYN8 whole entry): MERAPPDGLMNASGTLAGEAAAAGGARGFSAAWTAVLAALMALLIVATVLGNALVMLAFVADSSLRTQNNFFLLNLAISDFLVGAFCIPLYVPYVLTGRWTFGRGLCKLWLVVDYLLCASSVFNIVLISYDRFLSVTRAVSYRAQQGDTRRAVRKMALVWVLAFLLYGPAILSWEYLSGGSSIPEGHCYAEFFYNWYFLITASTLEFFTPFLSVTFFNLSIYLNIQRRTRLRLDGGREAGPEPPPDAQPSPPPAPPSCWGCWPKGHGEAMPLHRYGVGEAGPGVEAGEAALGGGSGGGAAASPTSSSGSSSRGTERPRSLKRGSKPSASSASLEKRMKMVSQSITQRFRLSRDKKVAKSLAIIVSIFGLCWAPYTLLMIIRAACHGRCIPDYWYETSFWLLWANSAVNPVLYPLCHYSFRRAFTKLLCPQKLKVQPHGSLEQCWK
T1 sequence (Q9Y5N1 whole entry): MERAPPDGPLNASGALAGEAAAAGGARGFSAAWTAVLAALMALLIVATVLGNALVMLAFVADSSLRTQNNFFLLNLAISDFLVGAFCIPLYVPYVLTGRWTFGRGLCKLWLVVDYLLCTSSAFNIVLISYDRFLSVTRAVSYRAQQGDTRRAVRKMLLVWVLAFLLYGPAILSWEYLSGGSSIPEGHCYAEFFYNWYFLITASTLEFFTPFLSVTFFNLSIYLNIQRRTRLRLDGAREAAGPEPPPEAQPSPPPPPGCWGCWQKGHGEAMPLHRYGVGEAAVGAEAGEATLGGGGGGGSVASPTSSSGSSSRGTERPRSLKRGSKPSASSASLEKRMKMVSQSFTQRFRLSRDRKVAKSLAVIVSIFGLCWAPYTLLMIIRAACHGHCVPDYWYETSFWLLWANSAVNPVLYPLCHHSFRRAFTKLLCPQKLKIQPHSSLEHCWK

melting point [°C] | Ki (human H3 receptor) [nM] | Ki [1] [nM] | Structure (SMILES)
207 to 209 |  |  | O=c1cccnn1CCCOc1ccc2c(c1)CCC1(CCN(C3CCC3)CC1)O2 (as salt: HCl) [Example 24, 1′-Cyclobutyl-6-(3-(2-pyridazin-3-one)propyloxy]-spiro[3,4-dihydrobenzopyran-2,4′-piperidine]]
201 to 203 |  |  | O=c1cccnn1CC(O)COc1ccc2c(c1)CCC1(CCN(C3CCC3)CC1)O2 (stereo not drawn) (as salt: HCl) [Example 25, 1′-Cyclobutyl-6-(3-(2-pyridazin-3-one)-2-hydroxypropyloxy]-spiro[3,4-dihydrobenzopyran-2,4′-piperidine]]
258 to 262 |  |  | O=c1cc(-c2ccc3c(c2)COC2(CCN(C4CCC4)CC2)O3)cn[nH]1 (as salt: HCl) [Example 26]
269 to 270 |  |  | Cc1cc2c(cc1-c1ccc(=O)n(C)n1)COC1(CCN(C3CCC3)CC1)O2 (as salt: HCl) [Example 30]
255 to 257 |  |  | Cc1c(-c2ccc(=O)[nH]n2)ccc2c1COC1(CCN(C3CCC3)CC1)O2 (as salt: HCl) [Example 31]
> 300 |  |  | O=C1NN=C(c2ccc3c(c2)COC2(CCN(C4CCC4)CC2)O3)C2CC12 (stereo not drawn) (as salt: HCl) [Example 37]
271 to 274 |  |  | O=C1NN=C(c2ccc3c(c2)COC2(CCN(C4CCC4)CC2)O3)C2CCC12 (stereo not drawn) (as salt: HCl) [Example 38]
209 to 214 |  |  | CC1CC(=O)NN=C1c1ccc2c(c1)COC1(CCN(C3CCC3)CC1)O2 (stereo not drawn) (as salt: HCl) [Example 39]
265 to 267 |  |  | Cc1cc(=O)[nH]nc1-c1ccc2c(c1)COC1(CCN(C3CCC3)CC1)O2 (as salt: HCl) [Example 40]
> 300 |  |  | Cc1c(-c2ccc3c(c2)COC2(CCN(C4CCC4)CC2)O3)n[nH]c(=O)c1C (as salt: HCl) [Example 41]
 | < 200 | < 200 | O=C1NN=C(c2ccc3c(c2)CCC2(CCN(C4CCC4)CC2)O3)C2CCC12 (racemic) [Example 10, 1′-Cyclobutyl-6-(3,4-diaza-bicyclo[4.2.0]oct-4-en-2-one-5-yl)-spiro[3,4-dihydrobenzopyran-2,4′-piperidine]]
 | < 200 | < 200 | O=C1NN=C(c2ccc3c(c2)CCC2(CCN(C4CCC4)CC2)O3)C2CCC12 (single isomer, unassigned) [Example 22]
 | < 200 | < 200 | O=C1NN=C(c2ccc3c(c2)CCC2(CCN(C4CCC4)CC2)O3)C2CCC12 (single isomer, unassigned) [Example 23]
207 to 209 | < 200 | < 200 | O=C1CCC(c2ccc3c(c2)CC2(CCN(C4CCC4)CC2)O3)=NN1 [Example 1, 6-(1-Cyclobutyl-spiro[benzofuran-2(3H),4′-piperidine]-5-yl)-4,5-dihydro-2H-pyridazin-3-one]
189 to 191 | < 200 | < 200 | O=C1NN=C(c2ccc3c(c2)CC2(CCN(C4CCC4)CC2)O3)C2CC12 (stereo not drawn) [Example 2, l′-cyclobutyl-5-(3,4-diaza-bicyclo[4.1.0]hepten-2-one-5-yl)-spiro[benzofuran-2(3H),4′-piperidine]]
213 to 215 | < 200 | 200 to 1000 | CC1CC(=O)NN=C1c1ccc2c(c1)CC1(CCN(C3CCC3)CC1)O2 (stereo not drawn) [Example 3, 6-(1-Cyclobutyl-spiro[benzofuran-2(3H),4′-piperidine]-5-yl)-5-methyl-4,5-dihydro-2H-pyridazin-3-one]
243 to 245 | < 200 | < 200 | Cc1cc(=O)[nH]nc1-c1ccc2c(c1)CC1(CCN(C3CCC3)CC1)O2 [Example 4, 6-(Cyclobutyl-spiro[benzofuran-2(3H),4′-piperidine]-5-yl)-5-methyl-2H-pyridazin-3-one]
242 to 243.5 | < 200 | < 200 | O=C1CCC(c2ccc3c(c2)CCC2(CCN(C4CCC4)CC2)O3)=NN1 [Example 5]
 | > 1000 | > 1000 | O=C1NN=C(c2ccc3c(c2)CCC2(CCNCC2)O3)C2CC12 (stereo not drawn) [Example 6, 6-(3,4-diaza-bicyclo[4.1.0]hept-4-en-2-one-5-yl)-spiro[3,4-dihydrobenzopyran-2,4′-piperidine]]

melting point [°C] | Ki (human H3 receptor) [nM] | Ki [1] [nM] | Structure (SMILES)
 | < 200 | < 200 | O=C1NN=C(c2ccc3c(c2)CCC2(CCN(C4CCC4)CC2)O3)C2CC12 (stereo not drawn) [Example 7, 1′-Cyclobutyl-6-(3,4-diaza-bicyclo[4.1.0]hept-4-en-2-one-5-yl)-spiro[3,4-dihydrobenzopyran-2,4′-piperidine]]
 | < 200 | < 200 | O=C1NN=C(c2ccc3c(c2)CCC2(CCN(C4CCCC4)CC2)O3)C2CC12 (stereo not drawn) [Example 8, 1′-Cyclopentyl-6-(3,4-diaza-bicyclo[4.1.0]hept-4-en-2-one-5-yl)-spiro[3,4-dihydrobenzopyran-2,4′-piperidine]]
 | < 200 | < 200 | CC(C)N1CCC2(CCc3cc(C4=NNC(=O)C5CC45)ccc3O2)CC1 (stereo not drawn) [Example 9]
 | < 200 | < 200 | CC1(C)CC(c2ccc3c(c2)CCC2(CCN(C4CCC4)CC2)O3)=NNC1=O [Example 11, 1′-Cyclobutyl-6-(4,4-dimethyl-4,5-dihydro-2H-pyridazin-3-one-6-yl)-spiro[3,4-dihydrobenzopyran-2,4′-piperidine]]
207 to 209 | < 200 | < 200 | CC1CC(=O)NN=C1c1ccc2c(c1)CCC1(CCN(C3CCC3)CC1)O2 (stereo not drawn) [Example 12, 1′-Cyclobutyl-6-(5-methyl-4,5-dihydro-2H-pyridazin-3-one-6-yl)-spiro[3,4-dihydrobenzopyran-2,4′-piperidine]]
270 to 272 | < 200 | < 200 | Cc1cc(=O)[nH]nc1-c1ccc2c(c1)CCC1(CCN(C3CCC3)CC1)O2 [Example 13, 1′-Cyclobutyl-6-(5-methyl-2H-pyridazin-3-one-6-yl)-spiro[3,4-dihydrobenzopyran-2,4′-piperidine]]
210 to 213 | < 200 | < 200 | CC(C)N1CCC2(CCc3cc(C4=NNC(=O)C(C)(C)C4)ccc3O2)CC1 [Example 14]
 | < 200 | < 200 | O=c1cccnn1CCCOc1ccc2c(c1)CCC1(CCN(C3CCC3)CC1)O2 [Example 24, 1′-Cyclobutyl-6-(3-(2-pyridazin-3-one)propyloxy]-spiro[3,4-dihydrobenzopyran-2,4′-piperidine]]
 | < 200 | < 200 | O=c1cccnn1CC(O)COc1ccc2c(c1)CCC1(CCN(C3CCC3)CC1)O2 (stereo not drawn) [Example 25, 1′-Cyclobutyl-6-(3-(2-pyridazin-3-one)-2-hydroxypropyloxy]-spiro[3,4-dihydrobenzopyran-2,4′-piperidine]]
 | < 200 | < 200 | O=c1cc(-c2ccc3c(c2)COC2(CCN(C4CCC4)CC2)O3)cn[nH]1 [Example 26]
 | < 200 | < 200 | Cc1cc2c(cc1-c1ccc(=O)n(C)n1)COC1(CCN(C3CCC3)CC1)O2 [Example 30]
 | < 200 | < 200 | Cc1c(-c2ccc(=O)[nH]n2)ccc2c1COC1(CCN(C3CCC3)CC1)O2 [Example 31]
 | < 200 | < 200 | CC1(C)CC(c2ccc3c(c2)COC2(CCN(C4CCC4)CC2)O3)=NNC1=O [Example 34, 1′-Cyclobutyl-6-[5H-4,4-dimethylpyridazin-3-one)-spiro[1,3-benzodioxine-2,4′-piperidine]]
 | < 200 | < 200 | O=C1NN=C(c2ccc3c(c2)COC2(CCN(C4CCC4)CC2)O3)C2CC12 (stereo not drawn) [Example 37]
 | < 200 | < 200 | O=C1NN=C(c2ccc3c(c2)COC2(CCN(C4CCC4)CC2)O3)C2CCC12 (stereo not drawn) [Example 38]
 | < 200 | < 200 | CC1CC(=O)NN=C1c1ccc2c(c1)COC1(CCN(C3CCC3)CC1)O2 (stereo not drawn) [Example 39]
 | < 200 | < 200 | Cc1cc(=O)[nH]nc1-c1ccc2c(c1)COC1(CCN(C3CCC3)CC1)O2 [Example 40]
 | < 200 | < 200 | Cc1c(-c2ccc3c(c2)COC2(CCN(C4CCC4)CC2)O3)n[nH]c(=O)c1C [Example 41]
